Laboratory results: patent publication US9365556B2, “3,5-diaminopyrazole kinase inhibitors” (Axikin Pharmaceuticals, Inc., priority 2012, dated 2016)

Legend:
[1] = biological target: T1, kinase domain protein of RC kinase (Homo sapiens, UniProt Q56UN5); assay: Enzymatic assay for kinase inhibitory activity (Crebtide substrate, LANCE read-out); type: biochemical; conditions: compound at 1 μM
T1 sequence (Q56UN5 1061-1324 limits assumed): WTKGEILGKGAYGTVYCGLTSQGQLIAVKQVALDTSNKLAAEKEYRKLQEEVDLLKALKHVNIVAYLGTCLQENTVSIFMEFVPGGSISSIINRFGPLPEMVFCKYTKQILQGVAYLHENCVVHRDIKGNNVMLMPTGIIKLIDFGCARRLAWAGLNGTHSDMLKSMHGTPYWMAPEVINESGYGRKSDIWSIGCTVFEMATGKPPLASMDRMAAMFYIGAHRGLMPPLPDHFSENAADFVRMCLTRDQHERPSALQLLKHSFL
Method in brief: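 Compound tested at 1 μM final in HEPES/MgCl2/DTT buffer with 50 nM Crebtide and kinase domain at 1 μM ATP; full-length kinase at 3 μM ATP after 45 min preincubation. Reaction 45 min at room temperature, stopped with EDTA, read by LANCE TR-FRET (665/615 nm). Activity binned as % inhibition at 1 μM.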

Row | Structure (SMILES) | inhibition at 1 µM [1] [%] | melting point [°C] | Activity (inhibition of the RC kinase activity) ([1]; 1 µM) | Activity (inhibition of the RC kinase activity) [1]
1 | CS(=O)(=O)N1CCC(/C=N/c2[nH]nc(Nc3cccc(Cl)c3)c2C#N)CC1 [Compound A80] | ≤ 5 | 102 to 105 | – | –
2 | N#Cc1c(Nc2cccc(Cl)c2)n[nH]c1/N=C/c1ccccc1-c1cccs1 [Compound A81] | 5 to 20 | 75 to 80 | – | –
3 | N#Cc1c(Nc2cccc(Cl)c2)n[nH]c1/N=C/c1ccc(OC(F)F)c(O)c1 [Compound A82] | ≤ 5 | 164 to 176 | – | –
4 | N#Cc1c(Nc2cccc(Cl)c2)n[nH]c1/N=C/c1ccc(-c2ccccn2)cc1 [Compound A84] | ≤ 5 | 326 to 329 | – | –
5 | N#Cc1c(Nc2cccc(Cl)c2)n[nH]c1/N=C/c1cncc(N2CCCC2)c1 [Compound A86] | ≤ 5 | 305 to 309 | – | –
6 | N#Cc1c(Nc2cccc(Cl)c2)n[nH]c1/N=C/c1ccc(-n2cncn2)cc1 [Compound A87] | ≤ 5 | 284 to 288 | – | –
7 | N#Cc1c(Nc2cccc(Cl)c2)n[nH]c1/N=C/c1ccc(OCCO)cc1 [Compound A88] | 5 to 20 | 229 to 232 | – | –
8 | N#Cc1c(Nc2cccc(Cl)c2)n[nH]c1/N=C/c1ccc2snnc2c1 [Compound A90] | ≤ 5 | 276 to 281 | – | –
9 | N#Cc1c(Nc2cccc(Cl)c2)n[nH]c1/N=C/c1ccc(Cl)cc1O [Compound A91] | ≤ 5 | 283 to 284 | – | –
10 | COc1ccc(/C=N/c2[nH]nc(Nc3cccc(Cl)c3)c2C#N)cc1F [Compound A93] | 20 to 50 | 217 to 220 | – | –
11 | N#Cc1c(Nc2cccc(Cl)c2)n[nH]c1/N=C/c1ccc(F)cc1O [Compound A98] | 20 to 50 | 232 to 238 | – | –
12 | Cc1cc(F)ccc1/C=N/c1[nH]nc(Nc2cccc(Cl)c2)c1C#N [Compound A99] | 5 to 20 | 253 to 257 | – | –
13 | COc1ccc(/C=N/c2[nH]nc(Nc3cccc(Cl)c3)c2C#N)cn1 [Compound A100] | 5 to 20 | 286 to 291 | – | –
14 | Cc1ccc(/C=N/c2[nH]nc(Nc3cccc(Cl)c3)c2C#N)c(O)c1 [Compound A101] | ≤ 5 | 293 to 296 | – | –
15 | N#Cc1ccc(/C=N/c2[nH]nc(Nc3cccc(Cl)c3)c2C#N)cc1 [Compound A102] | 5 to 20 | 266 to 274 | – | –
16 | N#Cc1c(Nc2cccc(Cl)c2)n[nH]c1/N=C/c1cnc(N)s1 [Compound A103] | – | 221 to 225 | D (no greater than 5% inhibition of the RC kinase activity at 1 μM) | –
17 | N#Cc1c(Nc2cccc(Cl)c2)n[nH]c1/N=C/c1cc[nH]c1 [Compound A106] | ≤ 5 | 240 to 248 | – | –
18 | N#Cc1c(Nc2cccnc2)n[nH]c1/N=C/c1ccc(O)cc1 [Compound A110] | 20 to 50 | 311 to 314 | – | –
19 | N#Cc1c(Nc2cccc(Cl)c2)n[nH]c1/N=C/c1ccc(Oc2ncccn2)cc1 [Compound A111] | 20 to 50 | 224 to 230 | – | –
20 | N#Cc1c(Nc2cccc(Cl)c2)n[nH]c1/N=C/c1ccc(Oc2ccc(C(F)(F)F)cn2)cc1 [Compound A112] | – | 268 to 270 | – | C (no greater than 20% but at least 5% inhibition of the RC kinase activity at 1 μM)

Continued, in another order:

Row | inhibition at 1 µM [1] [%] | melting point [°C] | Structure (SMILES) | Activity (inhibition of the RC kinase activity) ([1]; 1 µM) | Activity (inhibition of the RC kinase activity) [1]
21 | 5 to 20 | 238 to 246 | COc1cccc(O)c1/C=N/c1[nH]nc(Nc2ccccc2Cl)c1C(N)=O [Compound B1] | – | –
22 | ≥ 50 | 296 to 298 | NC(=O)c1c(Nc2cccc(Cl)c2)n[nH]c1N=Cc1ccc(O)c([N+](=O)[O-])c1 [Compound B2, 3-((3-chlorophenyl)amino)-5-((4-hydroxy-3-nitrobenzylidene)amino)-1H-pyrazole-4-carboxamide] | – | –
23 | 5 to 20 | 295 to 297 | COc1ccc(C=Nc2[nH]nc(Nc3cccc(Cl)c3)c2C(N)=O)cc1 [Compound B3, 3-((3-chlorophenyl)amino)-5-((4-methoxybenzylidene)amino)-1H-pyrazole-4-carboxamide] | – | –
24 | 5 to 20 | 303 to 305 | NC(=O)c1c(Nc2cccc(Cl)c2)n[nH]c1/N=C/c1ccc(Cl)cc1 [Compound B4, 5-((4-chlorobenzylidene)amino)-3-((3-chlorophenyl)amino)-1H-pyrazole-4-carboxamide] | – | –
25 | ≥ 50 | 261 to 263 | NC(=O)c1c(Nc2cccc(Cl)c2)n[nH]c1/N=C/c1ccc(O)cc1 [Compound B5] | – | –
26 | ≥ 50 | 268 to 270 | COc1cc(/C=N/c2[nH]nc(Nc3cccc(Cl)c3)c2C(N)=O)ccc1O [Compound B7] | – | –
27 | 20 to 50 | 283 to 285 | COc1cccc(/C=N/c2[nH]nc(Nc3cccc(Cl)c3)c2C(N)=O)c1 [Compound B8] | – | –
28 | ≥ 50 | 275 to 277 | NC(=O)c1c(Nc2ccccc2)n[nH]c1/N=C/c1ccc(O)c([N+](=O)[O-])c1 [Compound B9] | – | –
29 | 5 to 20 | 291 to 293 | NC(=O)c1c(Nc2ccccc2)n[nH]c1/N=C/c1ccc(Cl)cc1 [Compound B12] | – | –
30 | 20 to 50 | 257 to 260 | COc1ccc(/C=N/c2[nH]nc(Nc3ccccc3)c2C(N)=O)cc1 [Compound B13] | – | –
31 | 5 to 20 | 280 to 283 | NC(=O)c1c(Nc2cccc(Cl)c2)n[nH]c1/N=C/c1cccc2ccccc12 [Compound B15] | – | –
32 | 20 to 50 | 270 to 273 | COc1ccccc1/C=N/c1[nH]nc(Nc2cccc(Cl)c2)c1C(N)=O [Compound B18] | – | –
33 | 20 to 50 | 265 to 267 | NC(=O)c1c(Nc2cccc(Cl)c2)n[nH]c1/N=C/c1c[nH]cn1 [Compound B19] | – | –
34 | 20 to 50 | 273 to 277 | NC(=O)c1c(Nc2ccc(Cl)cc2)n[nH]c1/N=C/c1ccc[nH]1 [Compound B20] | – | –
35 | 5 to 20 | 303 to 306 | NC(=O)c1c(Nc2ccc(Cl)cc2)n[nH]c1/N=C/c1ccccc1 [Compound B21] | – | –
36 | 20 to 50 | 295 to 297 | NC(=O)c1c(Nc2ccc(Cl)cc2)n[nH]c1/N=C/c1ccc(O)c([N+](=O)[O-])c1 [Compound B22] | – | –
37 | ≤ 5 | 313 to 315 | COc1ccc(/C=N/c2[nH]nc(Nc3ccc(Cl)cc3)c2C(N)=O)cc1 [Compound B23] | – | –
38 | ≤ 5 | 307 to 309 | NC(=O)c1c(Nc2ccc(Cl)cc2)n[nH]c1/N=C/c1ccc(Cl)cc1 [Compound B24] | – | –
39 | ≤ 5 | 290 to 296 | NC(=O)c1c(Nc2ccc(Cl)cc2)n[nH]c1/N=C/c1cccc2ccccc12 [Compound B25] | – | –
40 | ≥ 50 | 288 to 289 | NC(=O)c1c(Nc2ccc(Cl)cc2)n[nH]c1/N=C/c1ccc(O)cc1 [Compound B26] | – | –
41 | 5 to 20 | 291 to 293 | NC(=O)c1c(Nc2ccc(Cl)cc2)n[nH]c1/N=C/c1ccc([N+](=O)[O-])cc1 [Compound B27] | – | –
